Where two headings read alike, the source gives them in different places.
Tests used:
gastric acid secretion = assay: Gastric acid secretion inhibition in pylorus-ligated rats (Shay); assay type: in vivo; conditions: Rattus norvegicus, intraduodenally, female rats, 4 hours
Procedure: The experimental procedure described hereinafter was used to determine the gastric acid secretion-inhibiting activity. More specifically, the pylorus of female rats, which had received no food for 24 hours, but which had received water ad libitum, is ligatured under slight ether narcosis in accordance with Shay et al. [Gastroenterology 5, 43 (1945)]. Immediately thereafter the substance to be tested is administered intraduodenally to the animals. Four hous later the animals are killed, the volume and the acidity of their gastric juice are determined and the values obtained are compared with those of control animals which were treated similarly, but which received no test substance. The ED 50 is that dosage of test substance which brings about a 50% decrease in volume (ED 50 volume) or acidity (ED 50 acidity) of the gastric juice in the treated animals compared with the control animals.

heart frequency = assay: Heart frequency (tachycardia) in conscious sheep dogs; assay type: in vivo; conditions: oral
Procedure: (§1) The positive inotropic activity was measured after the oral administration of the test substances to conscious sheep dogs. For this purpose, the animals are provided with an implanted pressure-telemetry system, whereby the pressure receiver is fixed in the left ventricle. The left ventricular pressure is sent from the animal via the implanted radio transmitter and received via a suitable antenna and receiving system, demodulated and amplified. By differentiation of the ascending side of the left ventricular pressure (LVP), there is calculated the maximum pressure increase rate (dLVP/dtmax) which represents the contractility parameter. Simultaneously, the heart frequency is recorded via a cardiotachograph. Under inotropy there are indicated the percentage variation (Δ%) of dLVP/dtmax and the duration of activity in hours (Hrs.). Under tachycardia there are indicated the percentage variations of the heart frequency (Δ%) after administration of the test substance and the duration of activity in hours (Hrs.).

[1] = system: left ventricular pressure (LVP); assay: Positive inotropic activity (dLVP/dtmax) in conscious sheep dogs; assay type: in vivo; conditions: oral; for change in vivo at 10 mg/kg / change in vivo at 1 mg/kg / change in vivo at 3 mg/kg: Canis lupus familiaris, read-out: Inotropy Δ% (percentage variation of dLVP/dtmax)
Procedure: as §1

[2] = system: Human platelet-rich plasma; assay: Collagen-induced blood platelet aggregation (aggregometer method of Born); assay type: cell-based; conditions: 10 min; human platelet-rich citrate plasma, 37° C., 10 minutes incubation, collagen fibrils; read-out: EC50 (collagen-induced blood platelet aggregation, maximum aggregation velocity)
Procedure: The maximum aggregation velocity was taken as the test parameter, and the effective concentration (EC50) was ascertained from dosage-activity curves. Human platelet-rich plasma was obtained by centrifugation from citrated venous blood. The experiments were carried out with suspensions of the test substances in 0.9% sodium chloride. 0.18 ml of citrate plasma was treated with a 10 μl suspension of the test compounds and incubated at 37° C. for 10 minutes, whereupon the aggregation was initiated by the addition of 10 μl of a suspension of collagen fibrils.

Compound	Heart frequency Hrs. (duration of activity) (heart frequency; 10 mg/kg)	Heart frequency Δ% (percentage variation) (heart frequency; 10 mg/kg)	EC50 [2]	Heart frequency Hrs. (duration of activity) (heart frequency; 1 mg/kg)	Heart frequency Δ% (percentage variation) (heart frequency; 1 mg/kg)	Heart frequency Hrs. (duration of activity) (heart frequency; 3 mg/kg)	Heart frequency Δ% (percentage variation) (heart frequency; 3 mg/kg)	ED50 (gastric acid secretion; read-out: ED 50 acidity (50% decrease in acidity of the gastric juice))	ED50 (gastric acid secretion; read-out: ED 50 volume (50% decrease in volume of the gastric juice))	Inotropy Hrs (duration of activity) ([1]; 10 mg/kg)	change in vivo at 10 mg/kg ([1]; 10 mg/kg)	Inotropy Hrs (duration of activity) ([1]; 1 mg/kg)	Inotropy Hrs (duration of activity) ([1]; 3 mg/kg)	change in vivo at 1 mg/kg ([1]; 1 mg/kg)	change in vivo at 3 mg/kg ([1]; 3 mg/kg)
Cc1cccc2c1CNC1=NC(=O)CN12.Cl [6-methyl-4,5-dihydroimidazo[1,2-a]quinazolin-2(1H)-one hydrochloride]				3.5 h	-7%	5 h	-12%					2 h	4.5 h	15%	32%
Cc1c(Cl)ccc2c1CNC1=NC(=O)CN12.Cl [7-chloro-6-methyl-4,5-dihydroimidazo[1,2-a]quinazolin-2(1H)-one hydrochloride]	6 h	+31%		5 h	+4%	3 h	+6%			6 h	50%	6 h	1 h	27%	7%
Cc1ccc2c(c1)CNC1=NC(=O)CN12.Cl [7-methyl-4,5-dihydroimidazo[1,2-a]quinazolin-2(1H)-one hydrochloride]						1 h	+6%						2 h		33%
Cl.O=C1CN2C(=N1)NCc1ccccc12 [4,5-dihydroimidazo[1,2-a]quinazolin-2(1H)-one hydrochloride]						2.5 h	+4%						4 h		79%
Cl.O=C1CN2C(=N1)NCc1c2ccc(Cl)c1Cl [6,7-dichloro-4,5-dihydroimidazo[1,2-a]quinazolin-2(1H)-one hydrochloride]				7 h	+22%							7.5 h		44%	
Cl.O=C1CN2C(=N1)NCc1cc(Cl)ccc12 [7-chloro-4,5-dihydroimidazo[1,2-a]quinazolin-2(1H)-one hydrochloride]	3 h	+13%								3.5 h	17%				

The next lines start with results.

Heart frequency Hrs. (duration of activity) (heart frequency; 10 mg/kg)	Heart frequency Δ% (percentage variation) (heart frequency; 10 mg/kg)	EC50 [2]	Heart frequency Hrs. (duration of activity) (heart frequency; 1 mg/kg)	Heart frequency Δ% (percentage variation) (heart frequency; 1 mg/kg)	Heart frequency Hrs. (duration of activity) (heart frequency; 3 mg/kg)	Heart frequency Δ% (percentage variation) (heart frequency; 3 mg/kg)	Compound	ED50 (gastric acid secretion; read-out: ED 50 acidity (50% decrease in acidity of the gastric juice))	ED50 (gastric acid secretion; read-out: ED 50 volume (50% decrease in volume of the gastric juice))	Inotropy Hrs (duration of activity) ([1]; 10 mg/kg)	change in vivo at 10 mg/kg ([1]; 10 mg/kg)	Inotropy Hrs (duration of activity) ([1]; 1 mg/kg)	Inotropy Hrs (duration of activity) ([1]; 3 mg/kg)	change in vivo at 1 mg/kg ([1]; 1 mg/kg)	change in vivo at 3 mg/kg ([1]; 3 mg/kg)
6 h	+77%	12.3 µM					Cl.O=C1CN2C(=N1)NCc1c(Cl)cccc12 [6-chloro-4,5-dihydroimidazo[1,2-a]quinazolin-2(1H)-one hydrochloride]	10 mg/kg	15 mg/kg	7 h	78%				
8 h	+59%	35 µM	4 h	+10%	4 h	0%	Cc1c(Br)ccc2c1CNC1=NC(=O)CN12.Cl [7-bromo-6-methyl-4,5-dihydroimidazo[1,2-a]quinazolin-2(1H)-one hydrochloride]			8 h	120%	2.5 h	5.5 h	8%	16%
6 h	+3%						Cc1ccc2c(c1C)CNC1=NC(=O)CN12.Cl [6,7-dimethyl-4,5-dihydroimidazo[1,2-a]quinazolin-2(1H)-one hydrochloride]			6 h	18%				
			5.5 h	-19%	6 h	-8%	Cc1cccc2c1N1CC(=O)N=C1NC2.Cl [9-methyl-4,5-dihydroimidazo[1,2-a]quinazolin-2(1H)-one hydrochloride]					2.5 h	6.5 h	27%	18%
6.5 h	+50%						COc1ccc2c(c1)CNC1=NC(=O)CN12.Cl [7-methoxy-4,5-dihydroimidazo[1,2-a]quinazolin-2(1H)-one hydrochloride]			7 h	67%				
					8 h	+16%	CC1C(=O)N=C2NCc3c(ccc(Cl)c3Cl)N21.Cl (stereo not shown) [6,7-dichloro-1-methyl-4,5-dihydroimidazo[1,2-a]quinazolin-2(1H)-one hydrochloride]						8 h		48%
7 h	+45%		5 h	+47%	6 h	+20%	COc1ccc2c(c1Cl)CNC1=NC(=O)CN12.Cl [6-chloro-7-methoxy-4,5-dihydroimidazo[1,2-a]quinazolin-2(1H)-one hydrochloride]			7 h	60%	1 h	7 h	10%	32%

Source: patent US4390540A, “Imidazoquinazolines having pharmaceutical activity” (Hoffmann-La Roche Inc., priority 1980, dated 1983)
